# Laboratory results as given in BindingDB's records for doi:10.1021/ml300330m (Glaxosmithkline, 2013).
# Experiment: Inhibition of PI3Kbeta human in PTEN wild type HCC1954 cells assessed as cell growth inhibition
row,SMILES,EC50 [µM]
1,Cc1nn2c(O)cc(N3CCOCC3)nc2c1Cc1cccc2ccccc12,31.6
2,Cc1nn2c(O)cc(C3CCOCC3)nc2c1Cc1cccc(C(F)(F)F)c1C,25.1

# Stronger by EC50, values ahead:
row,EC50 [µM],SMILES
1,15.8,Cc1nn2c(O)cc(N3CCOCC3)nc2c1Cc1cccc(C(F)(F)F)c1C
2,15.8,Cc1c(Cc2cnn3c(O)cc(N4CCOCC4)nc23)cccc1C(F)(F)F
3,12.6,Cc1nn2c(N)cc(N3CCOCC3)nc2c1Cc1cccc(C(F)(F)F)c1C
4,12.6,Cc1nn2c(NC(N)=O)cc(N3CCOCC3)nc2c1Cc1cccc(C(F)(F)F)c1C
